Experimental data as given in patent publication US12637454B2, “Heterocyclic monoacylglycerol lipase (MAGL) inhibitors” (Hoffmann-La Roche Inc., priority 2019, dated 2026).

These compounds were tested against T1, MAGL (Homo sapiens, UniProt Q99685) (assay: 2-AG assay (MAGL inhibitory activity, hydrolysis of 2-arachidonoylglycerol followed by mass spectrometry)). Settings: 50 pM MAGL, 8 μM 2-arachidonoylglycerol, 15 min preincubation, 30 min incubation at RT.
T1 sequence (Q99685 1-303): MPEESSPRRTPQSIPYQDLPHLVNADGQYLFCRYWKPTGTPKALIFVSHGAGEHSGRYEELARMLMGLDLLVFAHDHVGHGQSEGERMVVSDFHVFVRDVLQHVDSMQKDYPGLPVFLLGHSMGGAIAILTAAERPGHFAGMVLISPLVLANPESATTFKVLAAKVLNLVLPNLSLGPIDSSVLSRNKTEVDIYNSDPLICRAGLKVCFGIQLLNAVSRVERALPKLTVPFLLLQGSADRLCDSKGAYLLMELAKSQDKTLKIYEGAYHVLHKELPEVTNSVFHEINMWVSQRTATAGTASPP
Format: biochemical
Description: Compounds were profiled for MAGL inhibitory activity by determining the enzymatic activity by following the hydrolysis of the natural substrate 2-arachidonoylglycerol (2-AG) resulting in arachidonic acid, which can be followed by mass spectrometry. This assay is hereinafter abbreviated “2-AG assay”.
The 2-AG assay was carried out in 384 well assay plates (PP, Greiner Cat #784201) in a total volume of 20 μL. Compound dilutions were made in 100% DMSO (VWR Chemicals 23500.297) in a polypropylene plate in 3-fold dilution steps to give a final concentration range in the assay from 12.5 μM to 0.8 pM. 0.25 μL compound dilutions (100% DMSO) were added to 9 μL MAGL in assay buffer (50 mM TRIS (GIBCO, 15567-027), 1 mM EDTA (Fluka, 03690-100 mL), 0.01% (v/v) Tween. After shaking, the plate was incubated for 15 min at RT. To start the reaction, 10 μL 2-arachidonoylglycerol in assay buffer was added. The final concentrations in the assay was 50 pM MAGL and 8 μM 2-arachidonoylglyerol. After shaking and 30 min incubation at RT, the reaction was quenched by the addition of […] of ACN containing 4 μM of d8-arachidonic acid. The amount of arachidonic acid was traced by an online SPE system (Agilent Rapidfire) coupled to a triple quadrupole mass spectrometer (Agilent 6460). A C18 SPE cartridge (G9205A) was used in an ACN/water liquid setup. The mass spectrometer was operated in negative electrospray mode following the mass transitions 303.1→259.1 for arachidonic acid and 311.1→267.0 for d8-arachidonic acid. The activity of the compounds was calculated based on the ratio of intensities [arachidonic acid/d8-arachidonic acid].
`O=C(c1cccc(N2CCOC2=O)c1Cl)N1CCN2C[C@@](O)(c3ccc(Cl)cc3)CC[C@@H]2C1` [Example 13, 3-[3-[(7S,9aR)-7-(4-chlorophenyl)-7-hydroxy-3,4,6,8,9,9a-hexahydro-1H-pyrido[1,2-a]pyrazine-2-carbonyl]-2-chlorophenyl]-1,3-oxazolidin-2-one] gave an IC50 of 1190 nM.
With `O=C(c1cccc(N2CC(O)C2)c1Cl)N1CCN2C[C@@](O)(c3ccc(Cl)cc3)CC[C@@H]2C1` [Example 9, [(7S,9aR)-7-(4-chlorophenyl)-7-hydroxy-3,4,6,8,9,9a-hexahydro-1H-pyrido[1,2-a]pyrazin-2-yl]-[2-chloro-3-(3-hydroxyazetidin-1-yl)phenyl]methanone] the IC50 was 16.2 nM.
With `O=C(c1cccc(N2CCNC2=O)c1Cl)N1CCN2C[C@@](O)(c3ccc(Cl)cc3)CC[C@@H]2C1` [Example 14, 1-[3-[(7S,9aR)-7-(4-chlorophenyl)-7-hydroxy-3,4,6,8,9,9a-hexahydro-1H-pyrido[1,2-a]pyrazine-2-carbonyl]-2-chlorophenyl]imidazolidin-2-one] the IC50 was 2160 nM.
For `O=C(c1cccc(N2CC(O)C2)c1F)N1CCN2C[C@@](O)(c3ccc(F)c(Cl)c3)CC[C@@H]2C1` [Example 39, [(7S,9aR)-7-(3-chloro-4-fluorophenyl)-7-hydroxy-3,4,6,8,9,9a-hexahydro-1H-pyrido[1,2-a]pyrazin-2-yl]-[2-fluoro-3-(3-hydroxyazetidin-1-yl)phenyl]methanone], the IC50 was 38.5 nM.
In the case of `COc1cccc(C(=O)N2CCN3CC(O)(c4ccc(C(F)(F)F)nc4)CCC3C2)c1Cl` (racemic) [Example 71, (2-chloro-3-methoxyphenyl)-[rac-(7R,9aR)-7-hydroxy-7-[6-(trifluoromethyl)pyridin-3-yl]-3,4,6,8,9,9a-hexahydro-1H-pyrido[1,2-a]pyrazin-2-yl]methanone], the IC50 is reported as 278 nM.
With `O=C(c1cccc(N2CC(O)C2)c1Cl)N1CCN2C[C@@](O)(c3ccc(C(F)(F)F)cn3)CC[C@@H]2C1` [Example 32, [(7R,9aR)-7-hydroxy-7-[5-(trifluoromethyl)pyridin-2-yl]-3,4,6,8,9,9a-hexahydro-1H-pyrido[1,2-a]pyrazin-2-yl]-[2-chloro-3-(3-hydroxyazetidin-1-yl)phenyl]methanone] the IC50 was 72.7 nM.
In the case of `COc1ccc(C(=O)N2CCN3C[C@@](O)(c4ccc(Cl)cc4)CC[C@@H]3C2)c(Cl)n1` [Example 7, [(7S,9aR)-7-(4-chlorophenyl)-7-hydroxy-3,4,6,8,9,9a-hexahydro-1H-pyrido[1,2-a]pyrazin-2-yl]-(2-chloro-6-methoxypyridin-3-yl)methanone], the IC50 is reported as 398 nM.
`COc1cccc(C(=O)N2CCN3C[C@@](O)(c4ccc(F)c(Cl)c4)CC[C@@H]3C2)c1Cl` [Example 1, [(7S,9aR)-7-(3-Chloro-4-fluorophenyl)-7-hydroxy-3,4,6,8,9,9a-hexahydro-1H-pyrido[1,2-a]pyrazin-2-yl]-(2-chloro-3-methoxyphenyl)methanone] was tested, and the IC50 was 4.48 nM.
In the case of `Cc1nc(N)ccc1C(=O)N1CCN2C[C@@](O)(c3ccc(Cl)cc3)CC[C@@H]2C1` [Example 8, [(7S,9aR)-7-(4-chlorophenyl)-7-hydroxy-3,4,6,8,9,9a-hexahydro-1H-pyrido[1,2-a]pyrazin-2-yl]-(6-amino-2-methylpyridin-3-yl)methanone], the IC50 is reported as 2960 nM.
`CC1(O)CN(c2cccc(C(=O)N3CCN4C[C@@](O)(c5ccc(Cl)cc5)CC[C@@H]4C3)c2Cl)C1` [Example 46, [(7S,9aR)-7-(4-chlorophenyl)-7-hydroxy-3,4,6,8,9,9a-hexahydro-1H-pyrido[1,2-a]pyrazin-2-yl]-[2-chloro-3-(3-hydroxy-3-methylazetidin-1-yl)phenyl]methanone] was tested, and the IC50 was 234 nM.
Work on `O=C(c1cccc(N2CCC(O)CC2)c1Cl)N1CCN2C[C@@](O)(c3ccc(Cl)cc3)CC[C@@H]2C1` [Example 49, [(7S,9aR)-7-(4-chlorophenyl)-7-hydroxy-3,4,6,8,9,9a-hexahydro-1H-pyrido[1,2-a]pyrazin-2-yl]-[2-chloro-3-(4-hydroxypiperidin-1-yl)phenyl]methanone] yielded an IC50 of 80.8 nM.
For `O=C(c1cccc(-c2cnsc2)c1Cl)N1CCN2C[C@@](O)(c3ccc(Cl)cc3)CC[C@@H]2C1` [Example 68, [(7S,9aR)-7-(4-chlorophenyl)-7-hydroxy-3,4,6,8,9,9a-hexahydro-1H-pyrido[1,2-a]pyrazin-2-yl]-[2-chloro-3-(1,2-thiazol-4-yl)phenyl]methanone], the IC50 was 82.5 nM.
`COc1cccc(C(=O)N2CCN3C[C@@](O)(c4ccc(F)c(F)c4)CC[C@@H]3C2)c1Cl` [Example 59, [(7S,9aR)-7-(3,4-difluorophenyl)-7-hydroxy-3,4,6,8,9,9a-hexahydro-1H-pyrido[1,2-a]pyrazin-2-yl]-(2-chloro-3-methoxyphenyl)methanone] was tested, and the IC50 was 11.2 nM.
Compound `O=C(c1cccc(N2CC[C@H](O)C2)c1Cl)N1CCN2C[C@@](O)(c3ccc(F)c(Cl)c3)CC[C@@H]2C1` [Example 43, [(7S,9aR)-7-(3-chloro-4-fluorophenyl)-7-hydroxy-3,4,6,8,9,9a-hexahydro-1H-pyrido[1,2-a]pyrazin-2-yl]-[2-chloro-3-[(3S)-3-hydroxypyrrolidin-1-yl]phenyl]methanone] has an IC50 of 20.7 nM.
For `O=C(c1cccc(/C=C\c2ccccc2)c1Br)N1CCN2C[C@@H](c3ccc(Cl)cc3)CC[C@@H]2C1` [Example 27, [(7R,9aR)-7-(4-chlorophenyl)-1,3,4,6,7,8,9,9a-octahydropyrido[1,2-a]pyrazin-2-yl]-[2-bromo-3-[(Z)-2-phenylethenyl]phenyl]methanone], the IC50 was 10.5 nM.
Compound `CC(C)(C)OC(=O)N1CCN(c2cccc(C(=O)N3CCN4C[C@@](O)(c5ccc(Cl)cc5)CC[C@@H]4C3)c2F)CC1` [Example 22, tert-butyl 4-[3-[(7S,9aR)-7-(4-chlorophenyl)-7-hydroxy-3,4,6,8,9,9a-hexahydro-1H-pyrido[1,2-a]pyrazine-2-carbonyl]-2-fluorophenyl]piperazine-1-carboxylate] has an IC50 of 838 nM.
In the case of `Cc1c(C(=O)N2CCN3C[C@@](O)(c4ccc(Cl)cc4)CC[C@@H]3C2)cncc1-c1cc[nH]n1` [Example 70, [(7S,9aR)-7-(4-chlorophenyl)-7-hydroxy-3,4,6,8,9,9a-hexahydro-1H-pyrido[1,2-a]pyrazin-2-yl]-[4-methyl-5-(1H-pyrazol-3-yl)pyridin-3-yl]methanone], the IC50 is reported as 994 nM.
`O=C(c1cncc(-c2cc[nH]n2)c1Cl)N1CCN2C[C@@](O)(c3ccc(Cl)cc3)CC[C@@H]2C1` [Example 66, [(7S,9aR)-7-(4-chlorophenyl)-7-hydroxy-3,4,6,8,9,9a-hexahydro-1H-pyrido[1,2-a]pyrazin-2-yl]-[4-chloro-5-(1H-pyrazol-3-yl)pyridin-3-yl]methanone] showed an IC50 of 172 nM.
With `O=C(c1cccc2c1CCN2)N1CCN2C[C@@](O)(c3ccc(F)c(Cl)c3)CC[C@@H]2C1` [Example 65, [(7S,9aR)-7-(3-chloro-4-fluorophenyl)-7-hydroxy-3,4,6,8,9,9a-hexahydro-1H-pyrido[1,2-a]pyrazin-2-yl]-(2,3-dihydro-1H-indol-4-yl)methanone] the IC50 was 68.4 nM.
With `O=C(c1cccc(-c2ccn[nH]2)c1Cl)N1CCN2C[C@](O)(c3ccc(Cl)cc3)CC[C@H]2C1` [Example 4, [(7R,9aS)-7-(4-chlorophenyl)-7-hydroxy-3,4,6,8,9,9a-hexahydro-1H-pyrido[1,2-a]pyrazin-2-yl]-[2-chloro-3-(1H-pyrazol-5-yl)phenyl]methanone] the IC50 was 76.3 nM.
With `COc1cccc(C(=O)N2CCN3C[C@](O)(c4ccc(F)c(Cl)c4)CC[C@H]3C2)c1Cl` [Example 2, [(7R,9aS)-7-(3-chloro-4-fluorophenyl)-7-hydroxy-3,4,6,8,9,9a-hexahydro-1H-pyrido[1,2-a]pyrazin-2-yl]-(2-chloro-3-methoxyphenyl)methanone] the IC50 was 18.8 nM.
`O=C(c1cccc(-c2ncsn2)c1Cl)N1CCN2C[C@@](O)(c3ccc(F)c(Cl)c3)CC[C@@H]2C1` [Example 58, [(7S,9aR)-7-(3-chloro-4-fluorophenyl)-7-hydroxy-3,4,6,8,9,9a-hexahydro-1H-pyrido[1,2-a]pyrazin-2-yl]-[2-chloro-3-(1,2,4-thiadiazol-3-yl)phenyl]methanone] was tested, and the IC50 was 14.2 nM.
`O=C(c1cccc(N2CC(CO)C2)c1Cl)N1CCN2C[C@@](O)(c3ccc(F)c(Cl)c3)CC[C@@H]2C1` [Example 53, [(7S,9aR)-7-(3-chloro-4-fluorophenyl)-7-hydroxy-3,4,6,8,9,9a-hexahydro-1H-pyrido[1,2-a]pyrazin-2-yl]-[2-chloro-3-[3-(hydroxymethyl)azetidin-1-yl]phenyl]methanone] was tested, and the IC50 was 79.7 nM.
